From patent publication US20230414778A1, “COMBINATION OF ANTIBODY-DRUG CONJUGATE WITH ANTI-SIRPalpha ANTIBODY” (DAIICHI SANKYO COMPANY, LIMITED, priority 2020, published 2023)

Assays:
[1] = tested on: mouse colorectal cancer cell line CT26.WT; assay: ICD induction evaluation (in vitro): HMGB1 in culture supernatant (ELISA); format: cell-based; details: for release of HMGB1, maximum, relative to control: CT26.WT culture supernatant after 24 hours, MTX 0.4-6 μM vs control (0 μM), compound (A) 1-16 μM vs R10 or R10-DMSO; for HMGB1 released in the culture supernatant (confirmation of ICD induction): Example 3, CT26.WT, compound (A) 4 μM or MTX 1 μM, 24 hours
Procedure: In cancer cells treated with different compounds, the ATP level, and the expression level of HMGB1, which serve as an index of Immunogenic cell death (ICD), were measured. Cells of mouse colorectal cancer cell line CT26.WT were seeded in a 6-well plate and cultured overnight. After the supernatant was removed, the cells were washed twice with PBS. Compound (A) was dissolved in RPMI1640 culture solution containing 10% FBS (R10) to prepare solutions having a final concentration of 0, 1, 4 and 16 μM. As a positive control, Mitoxantrone (MTX) was dissolved in DMSO and added at a final concentration of 0.4, 1.5 and 6 μM. To the control (0 μM) herein, DMSO was added in the same amount as that of compound (A) (R10-DMSO). Twenty four hours later, the culture supernatant was collected, and the levels of ATP and HMGB1 were measured. The level of ATP was measured by adding the culture supernatant in a 96-well white plate, adding the same amount of Back titer-Glo (manufactured by Promega Corporation) and determining the amount of luminescence by a plate reader. The level of HMGB1 was detected by a HMGB1 ELISA-kit (manufactured by Shino-Test Corporation) in accordance with the Sandwich ELISA method. In the plate provided in the kit, a test buffer was added, and thereafter, an HMGB1 standard solution diluted with the test buffer and the culture supernatant were added thereto. It was allowed to stand at 37° C. for 24 hours. After the supernatant was removed and the cells were washed five times with PBS/Tween 20 (200 μL/well), a secondary-antibody solution provided in the kit was added in an amount of 100 μL/well. It was allowed to stand at room temperature for 2 hours. After the supernatant was removed, the cells were washed five times with PBS/Tween 20 (200 μL/well). Thereafter, a color-producing solution provided in the kit was added in an amount of 100 μL/well. The plate was allowed to stand at room temperature for 30 minutes. A stop solution (100 μL/well) was added and stirred. The absorbance at 405 nm was measured by a plate reader. The results of the control group and compound (A) group were compared in accordance with the Dunnett's test. P value was expressed to four decimal places. The results satisfying P<0.05 (two-sided test) were determined as being significant.
(§1) Cells of mouse colorectal cancer cell line CT26.WT were seeded in a cell-culture flask and cultured overnight. The supernatant was removed and the cells were washed twice with PBS. To induce ICD, compound (A) (4 μM) or MTX (1 μM) was added in a RPMI1640 culture solution containing 10% FBS (R10). Twenty four hours later, HMGB1 in the culture supernatant was measured in accordance with the method shown in Example 1 in order to confirm ICD induction.

[2] = tested on: mouse colorectal cancer cell line CT26.WT; assay: ICD induction evaluation (in vitro): ATP in culture supernatant; format: cell-based; details: CT26.WT culture supernatant after 24 hours; MTX 0.4-6 μM vs control (0 μM); compound (A) 1-16 μM vs R10 or R10-DMSO
Procedure: In cancer cells treated with different compounds, the ATP level, and the expression level of HMGB1, which serve as an index of Immunogenic cell death (ICD), were measured. Cells of mouse colorectal cancer cell line CT26.WT were seeded in a 6-well plate and cultured overnight. After the supernatant was removed, the cells were washed twice with PBS. Compound (A) was dissolved in RPMI1640 culture solution containing 10% FBS (R10) to prepare solutions having a final concentration of 0, 1, 4 and 16 μM. As a positive control, Mitoxantrone (MTX) was dissolved in DMSO and added at a final concentration of 0.4, 1.5 and 6 μM. To the control (0 μM) herein, DMSO was added in the same amount as that of compound (A) (R10-DMSO). Twenty four hours later, the culture supernatant was collected, and the levels of ATP and HMGB1 were measured. The level of ATP was measured by adding the culture supernatant in a 96-well white plate, adding the same amount of Back titer-Glo (manufactured by Promega Corporation) and determining the amount of luminescence by a plate reader. The level of HMGB1 was detected by a HMGB1 ELISA-kit (manufactured by Shino-Test Corporation) in accordance with the Sandwich ELISA method. […] The absorbance at 405 nm was measured by a plate reader. […] The results satisfying P<0.05 (two-sided test) were determined as being significant.

CT26.WT cells = assay: Evaluation of in vivo ICD induction (vaccination effect, re-challenge); design: species or system BALB/c mice; details: mice inoculated with drug-treated CT26.WT cells, n=6
Procedure: as §1
For evaluating in vivo ICD, the culture supernatant was removed from each of the culture flasks treated with drugs and the cells were washed twice with PBS, and then cells were collected. The supernatant was removed and the cells were washed once with PBS to prepare a suspension containing 5.0×10^6 cells/mL. As a control, a suspension was prepared by adding CT26.WT cells, which were cultured in a RPMI1640 culture solution containing 10% FBS without a drug, in an amount of 5.0×10^6 cells/mL, in the same manner as above. After centrifugation, the supernatant was removed. The cells were subjected to a freeze-thaw process repeatedly three times and suspended again in PBS to obtain Necrotic cell death (NCD) cells.
The cells (5.0×10^6 cells) of each group mentioned above were subcutaneously inoculated into the right axilla of each of female 6 week-old BALB/c mice (BALB/c AnNCrlCrlj) (bred by CHARLES RIVER LABORATORIES JAPAN, INC.) (inoculation, Day 0). An anti-SIRPα antibody (clone: 5C12) or an anti-CD47 antibody (clone: MIAP410, manufactured by Bio X Cell, Inc.) was intraperitoneally administered at a dose of 10 mg/kg on Day 1 and 5 (two times in total). As a control, the same amount of PBS was administered. Seven days later, CT26.WT cells (3.0×10^6 cells) not treated with a drug were subcutaneously inoculated into the left axilla of each of the mice (re-challenge, Day 0). On Day 14, tumor volumes were measured to evaluate vaccination effect. Note that the number of mice per group was 6. The results of the NCD-PBS group and individual groups were compared in accordance with the Dunnett's test, P value was expressed to four decimal places. The results satisfying P<0.05 (two-sided test) were determined as being significant.

[3] = PBS administration, re-challenge, Day 14
[4] = plus anti-SIRPα antibody (clone 5C12) 10 mg/kg i.p. Day 1 and 5

SMILES | release of HMGB1, maximum, relative to control [1] | HMGB1 released in the culture supernatant (confirmation of ICD induction) [1] | release of ATP, maximum, relative to control [2] | number of CR individuals (engraftment of re-challenged tumor rejected) (CT26.WT cells; [3]) | number of CR individuals (engraftment of re-challenged tumor rejected) (CT26.WT cells; [4]) | number of CR individuals (engraftment of re-challenged tumor rejected) (CT26.WT cells; plus anti-CD47 antibody (clone MIAP410) 10 mg/kg i.p. Day 1 and 5)
O=C1c2c(O)ccc(O)c2C(=O)c2c(NCCNCCO)ccc(NCCNCCO)c21 [MTX, Mitoxantrone, reference compound] | about 3 times | released | about 4 times | 2/6 | 4/6 | 
CC[C@@]1(O)C(=O)OCc2c1cc1n(c2=O)Cc2c-1nc1cc(F)c(C)c3c1c2[C@@H](NC(=O)CO)CC3 [compound (A)] | about 4.6 times | released | about 4.6 times | 5/6 | all cases show CR | all cases show CR
